Legend:
RAW264.7 [1] = experiment: Anti-inflammatory activity in mouse RAW264.7 cells assessed as inhibition of LPS-induced reduction in cytokine levels relative to control; type: functional; set-up: scale not given: the % may be the effect or the level left
Mus musculus [2] = experiment: Anti-inflammatory activity in Swiss albino mouse of Carrageenan-induced paw edema assessed as reduction in inflammation at 100 mg/kg measured after 1 hr relative to control; type: functional; set-up: scale not given: the % may be the effect or the level left
Mus musculus [3] = experiment: Anti-inflammatory activity in Swiss albino mouse of Carrageenan-induced paw edema assessed as reduction in paw edema at 100 mg/kg measured after 1 hr (reference value: 142.5 +/- 5.6 uL); type: functional
Mus musculus [4] = experiment: Anti-inflammatory activity in Swiss albino mouse of Carrageenan-induced paw edema assessed as reduction in inflammation at 100 mg/kg measured after 2 hr relative to control; type: functional; set-up: scale not given: the % may be the effect or the level left
Mus musculus [5] = experiment: Anti-inflammatory activity in Swiss albino mouse of Carrageenan-induced paw edema assessed as reduction in paw edema at 100 mg/kg measured after 2 hr (reference value: 140 +/- 6.3 uL); type: functional
Mus musculus [6] = experiment: Anti-inflammatory activity in Swiss albino mouse of Carrageenan-induced paw edema assessed as reduction in inflammation at 100 mg/kg measured after 3 hr relative to control; type: functional; set-up: scale not given: the % may be the effect or the level left
Mus musculus [7] = experiment: Anti-inflammatory activity in Swiss albino mouse of Carrageenan-induced paw edema assessed as reduction in paw edema at 100 mg/kg measured after 3 hr (reference value: 130 +/- 3.8 uL); type: functional
Mus musculus [8] = experiment: Anti-inflammatory activity in Swiss albino mouse of Carrageenan-induced paw edema assessed as reduction in inflammation at 100 mg/kg measured after 4 hr relative to control; type: functional; set-up: scale not given: the % may be the effect or the level left
Mus musculus [9] = experiment: Anti-inflammatory activity in Swiss albino mouse of Carrageenan-induced paw edema assessed as reduction in paw edema at 100 mg/kg measured after 4 hr (reference value: 126.7 +/- 6.9 uL); type: functional
Mus musculus [10] = experiment: Anti-inflammatory activity in Swiss albino mouse of Carrageenan-induced pleurisy assessed as reduction in total leukocytes at 50 mg/kg, po relative to control; type: functional; set-up: scale not given: the % may be the effect or the level left
Mus musculus [11] = experiment: Anti-inflammatory activity in Swiss albino mouse of Carrageenan-induced pleurisy assessed as reduction in migration of leukocytes at 100 mg/kg, po relative to control; type: functional; set-up: scale not given: the % may be the effect or the level left
Mus musculus [12] = experiment: Anti-inflammatory activity in Swiss albino mouse of Carrageenan-induced pleurisy assessed as reduction in migration of leukocytes at 100 mg/kg, po (reference value: 5.2 +/- 0.34); type: functional
Mus musculus [13] = experiment: Anti-inflammatory activity in Swiss albino mouse of Carrageenan-induced pleurisy assessed as reduction in TNFalpha levels at 100 mg/kg, po; type: functional
[14] = Anti-inflammatory activity assessed as protein denaturation using bovine serum albumin relative to control; type: functional
[15] = Antioxidant activity assessed as DPPH radical scavenging activity incubated for 20 mins relative to control; type: functional
[16] = Inhibition of MAPK p38 (unknown origin); set-up: species or system Homo sapiens
Rattus norvegicus [17] = experiment: Anti-inflammatory activity in Carrageenan-induced rat paw edema in Wistar rat assessed as reduction in inhibition of edema measured after 4 hrs relative to control; type: functional; set-up: scale not given: the % may be the effect or the level left
[18] = target: Tumor necrosis factor (Homo sapiens) (UniProt P01375); experiment: Inhibition of TNF-alpha (unknown origin) relative to control; conditions: concentration not given here
Sequence of Tumor necrosis factor (Homo sapiens) (P01375 whole entry, looked up): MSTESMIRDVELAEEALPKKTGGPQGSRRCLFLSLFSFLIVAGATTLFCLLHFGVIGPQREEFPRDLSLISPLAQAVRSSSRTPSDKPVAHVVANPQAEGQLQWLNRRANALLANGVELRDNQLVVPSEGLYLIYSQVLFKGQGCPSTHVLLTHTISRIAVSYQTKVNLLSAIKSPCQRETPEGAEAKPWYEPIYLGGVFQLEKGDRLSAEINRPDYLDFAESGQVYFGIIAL

Rattus norvegicus [19] = experiment: Anti-inflammatory activity against formalin-induced foot paw edema in PO dosed rat at 10 mg/kg assessed as inhibition of edema measured after 1 hr relative to control; type: functional; set-up: scale not given: the % may be the effect or the level left
Rattus norvegicus [20] = species on record: Rattus norvegicus; experiment: Antinociceptive activity in Wistar rat assessed as hot-plate change in latency by hot plate test method relative to control; type: organism-based; conditions: in vivo
Rattus norvegicus [21] = experiment: Analgesic activity in Carrageenan- induced paw edema in PO dosed Swiss albino rat assessed as protection of hind paw measured after 2 hrs at 20 mg/kg relative to control; type: functional
Rattus norvegicus [22] = experiment: Anti-inflammatory activity against formalin-induced foot paw edema in PO dosed rat at 10 mg/kg assessed as inhibition of edema measured after 4 hr relative to control; type: functional
Rattus norvegicus [23] = experiment: Anti-inflammatory activity against formalin-induced foot paw edema in PO dosed rat at 10 mg/kg assessed as inhibition of edema measured after 5 hr relative to control; type: functional; set-up: scale not given: the % may be the effect or the level left
Rattus norvegicus [24] = experiment: Anti-ulcerative activity in aspirin induced Wistar rat ulcer model assessed as inhibition of ulcer index at 20 mg/kg,po; type: functional
Rattus norvegicus [25] = experiment: Anti-inflammatory activity in Wistar rat assessed as reduced hind paw edema at 25 mg/kg relative to control; type: functional; set-up: scale not given: the % may be the effect or the level left
Rattus norvegicus [26] = experiment: Anti-ulcerative activity in Carrageenan-induced Sprague-Dawley rat ulcer model assessed as inhibition of ulcer index at 10 mg/kg,po; type: functional
Mus musculus [27] = experiment: Anti-inflammatory activity in Carrageenan-induced paw edema in […] mouse model assessed as inhibition of edema at 200 mg/kg, po relative to control; type: functional; set-up: scale not given: the % may be the effect or the level left
Mus musculus [28] = experiment: Anti-inflammatory activity in Carrageenan-induced paw edema mouse model assessed as inhibition of granuloma measured after 24 hrs relative to control; type: functional
Rattus norvegicus [29] = experiment: Anti-inflammatory activity against formalin-induced foot paw edema in Wistar rat at 5 mg/kg, po assessed as inhibition of edema measured after 4 hr relative to control; type: functional
Rattus norvegicus [30] = experiment: Anti-inflammatory activity in Carageenan-induced paw edema Wistar rat model assessed as reduction in paw edema volume relative to control; type: functional; set-up: scale not given: the % may be the effect or the level left
Mus musculus [31] = experiment: Anti-inflammatory activity against dimethylbenzene-induced auricular edema Kunming mouse model assessed as inhibition of ear edema at 50 mg/kg, po administered once daily relative to control; type: functional; set-up: scale not given: the % may be the effect or the level left
Mus musculus [32] = experiment: Anti-inflammatory activity against dimethylbenzene-induced auricular edema Kunming mouse model assessed as inhibition of ear edema at 100 mg/kg, po administered once daily relative to control; type: functional; set-up: scale not given: the % may be the effect or the level left
RAW264.7 [33] = experiment: Anti-inflammatory activity in mouse RAW264.7 cells assessed as inhibition of LPS-induced NO production; type: functional, cell-based
RAW264.7 [34] = experiment: Anti-inflammatory activity in mouse RAW264.7 cells assessed as inhibition of LPS-induced TNFalpha production measured after 24 hrs by EIA method; type: functional, cell-based; conditions: RAW264.7, 24 h
RAW264.7 [35] = experiment: Anti-inflammatory activity in mouse RAW264.7 cells assessed as inhibition of LPS-induced IL-6 production measured after 24 hrs by EIA method; type: functional, cell-based; conditions: RAW264.7, 24 h
Rattus norvegicus [36] = experiment: Anti-inflammatory activity against carrageenan-induced Albino Wistar rat paw edema model assessed as inhibition of rat paw edema at 50 mg/kg, po after 3 hrs relative to control; type: functional; set-up: scale not given: the % may be the effect or the level left
Rattus norvegicus [37] = experiment: Anti-inflammatory activity in Carrageenan-induced-Wistar albino rat model assessed as reduction in volume of paw edema measured after 3 hrs; type: functional
Rattus norvegicus [38] = experiment: Anti-ulcerative activity in Carrageenan-induced paw edema Swiss albino rat ulcer model assessed as inhibition of ulcer index at 10 mg/kg,po; type: functional
Mus musculus [39] = experiment: Analgesic activity in PO dosed Swiss albino mouse assessed as protection of paw edema measured after 2 hrs at 20 mg/kg relative to control; type: functional

O=c1[nH]c(-c2ccccn2)nc2sc3c(c12)CCCC3
Activity (RAW264.7 [1]): 70%

CN1CCN(C(=O)c2cnn(-c3ccccc3)c2)CC1
Activity (Mus musculus [2]): 19%
Activity (Mus musculus [3]): 115.7 µL
Activity (Mus musculus [4]): 37%
Activity (Mus musculus [5]): 88.6 µL
Activity (Mus musculus [6]): 34%
Activity (Mus musculus [7]): 85.7 µL
Activity (Mus musculus [8]): 39%
Activity (Mus musculus [9]): 77.1 µL
Activity (Mus musculus [10]): 34.5%
Activity (Mus musculus [11]): 36.5%
Activity (Mus musculus [12]): 3.3
Activity (Mus musculus [13]): 2.6

O=C(Nc1ccc(Cl)cc1)c1ccc(Nc2ncnc3c2cnn3-c2ccccc2)cc1
Activity [14]: 82.3%
Activity [15]: 74.9%
IC50 [16]: 1630 nM
Activity (Rattus norvegicus [17]): 83.73%
inhibition [18]: 62.3%

CCOC(=O)c1c(SC)nn(C(=O)CSc2nnc(CCCOc3ccc(C)cc3C(=O)c3ccc(F)cc3)o2)c1N
Activity (Rattus norvegicus [19]): 52.17%
Activity (Rattus norvegicus [20]): 92.3%

CC1=NN(c2ccc(F)cc2)C(=O)/C1=N\Nc1ccc(-c2nc3ccccc3[nH]2)cc1
Activity (Rattus norvegicus [21]): 65%

Cc1ccc(-c2cc(C(F)(F)F)nn2-c2ccc(S(N)(=O)=O)cc2)cc1 [CELECOXIB]
inhibition in vivo at 10 mg/kg (Rattus norvegicus [22]): 46.4%
Activity (Rattus norvegicus [23]): 69%
UI (Rattus norvegicus [24]): 2.99
Activity (Rattus norvegicus [25]): 57.14%
UI (Rattus norvegicus [26]): 2.93
Activity (Mus musculus [27]): 17.5%
inhibition (INH) (Mus musculus [28]): 8.6%
inhibition in vivo at 5 mg/kg (Rattus norvegicus [29]): 46.4%
Activity (Rattus norvegicus [30]): 87.59%
Activity (Mus musculus [31]): 79%
Activity (Mus musculus [32]): 36%

CCCCc1nn(C)c2c(NCCCN3CCOCC3)nc(/C=C/c3cc(OC)c(OC)c(OC)c3)nc12
IC50 (RAW264.7 [33]): 5.63 µM
IC50 (RAW264.7 [34]): 4.38 µM
IC50 (RAW264.7 [35]): 2640 nM

NS(=O)(=O)c1ccc(N/N=C/c2cn(-c3ccc(S(N)(=O)=O)cc3)nc2-c2ccc(Cl)cc2)cc1
Activity (Rattus norvegicus [36]): 97.69%
ED50 (Rattus norvegicus [37]): 8 mg/kg
UI (Rattus norvegicus [26]): 2.72

CC1=NN(c2ccc(Cl)cc2)C(=O)/C1=N\Nc1ccc(-c2nc3ccccc3[nH]2)cc1
UI (Rattus norvegicus [38]): 0.53
Activity (Mus musculus [39]): 67%

— ChEMBL document CHEMBL5233249, “Recent advancements in the development of heterocyclic anti-inflammatory agents” (Eur J Med Chem, 2020)
